{"source": "patent US10653717B2", "about": "“Antibiotic compositions” (priority 2016, dated 2020)", "key": {"[1]": {"test_system": "AB-1: Acinetobacter baumannii H#", "assay": "MIC of silver with antibiotics on clinical isolated MDR Gram-negative bacteria", "type": "cell-based", "conditions": "antibiotic 4 μM", "procedure": "(§1) There are five clinically most difficult-to-treat MDR Gram-negative pathogen species: Klebsiella pneumonia, Acinetobacter baumannii, Pseudomonas aeruginosa, Enterobacter cloacae and Escherichia coli. One strain from each species was isolated, and overnight cultures were diluted 1:1000 times in LB medium, and treated with serial concentrations of Ag^+ and antibiotics in combinations for 24 h (Table 10).\n(§2) Five clinical isolated MDR Gram-negative strains were grown until an OD600 nm of 0.4, and were diluted 1:1,000 into 100 μl LB medium in 96 micro-well plates. […] The cultures treated with the same serial dilutions of 100 μl ebselen and silver nitrate were used as the positive control."}, "[2]": {"test_system": "PA-1: Pseudomonas aeruginosa 1298#", "assay": "MIC of silver with antibiotics on clinical isolated MDR Gram-negative bacteria", "type": "cell-based", "conditions": "antibiotic 4 μM", "procedure": "as §1, §2"}, "[3]": {"test_system": "ECO-1: Escherichia coli 1139#", "assay": "MIC of silver with antibiotics on clinical isolated MDR Gram-negative bacteria", "type": "cell-based", "conditions": "antibiotic 4 μM", "procedure": "as §1, §2"}, "E. coli DHB4 [4]": {"test_system": "E. coli DHB4", "assay": "E. coli DHB4 growth in micro-well plates, OD600 nm, 16 h", "type": "cell-based, Escherichia coli", "procedure": "The effect of silver nitrate with ebselen in combination on the growth of Gram-negative model bacteria, E. coli, was investigated in the microplates. DHB4 overnight cultures were diluted 1:1000 times in Luria-Bertani (LB) medium, and treated with ionic silver (Ag^+) as a nitrate salt (AgNO3) for 16 h.\nE. coli DHB4 cells overnight cultures were diluted 1:1000 times in Luria-Bertani (LB) medium and treated with serial concentrations of AgNO3 and/or ebselen for 16 h. The cell viability was determined by measuring the absorbance at 600 nm. The culture treated with 0.8% (v/v) DMSO was used as a control.\nE. coli DHB4 cells were grown until an OD600 nm of 0.4, and treated with serial dilutions of ebselen (0, 2, 4, 8 μM) for 16 h. The cell viability was determined by measuring the absorbance at 600 nm. The culture treated with 0.8% (v/v) DMSO was used as a control."}, "ECL-2: E. cloacae 2301#": {"test_system": "ECL-2: E. cloacae 2301#", "assay": "MIC of silver with antibiotics on clinical isolated MDR Gram-negative bacteria", "type": "cell-based, Enterobacter cloacae", "conditions": "antibiotic 4 μM", "procedure": "as §1, §2"}, "E. coli DHB4 [5]": {"test_system": "E. coli DHB4", "assay": "E. coli growth curves in 15 ml tubes, OD600 nm", "type": "cell-based, Escherichia coli", "procedure": "The large scale growth inhibition of E. coli by Ag^+ with ebselen in combination was also observed in shaking testing 15 ml tubes. […] PI is a membrane-impermeable fluorescent dye that has been widely used to detect permeation of cell membrane and dead cells.\nE. coli DHB4 cells were grown in 15 ml tubes until an OD600 nm of 0.4, and treated with 5 μM AgNO3 and serial concentration of ebselen (0, 20, 40, 80 μM) in combination. The survival of untreated E. coli was compared with the antibiotic-treated cells by measuring OD600 nm and counting the colonies. For colony formation assay, cells were harvested at 10 min, 1 h, 2 h, and 4 h by centrifugation at 6,000 rpm for 5 min and thoroughly washed 3 times with PBS. The cells were serially diluted in PBS, and 100 μl cultures were plated on LB plates. The colonies were counted after overnight incubation, and CFU/ml was calculated using the following formula: [(colonies)*(dilution factor)]/(amount plated)."}, "E. coli DHB4 [6]": {"test_system": "E. coli DHB4", "assay": "ROS production, H2DCF-DA staining, flow cytometry", "type": "cell-based, Escherichia coli", "conditions": "5 μM Ag^+ alone or 20 μM ebselen alone", "procedure": "(§3) The E. coli DHB4 cells were grown till the absorbance at OD600 nm of 0.4 in LB medium, and the bacterial cells were treated with different combinations of ebselen and AgNO3 for 10 min. To analyze the amount of ROS production in the bacteria, cells were harvested by centrifugation at 6,000 rpm for 5 min and thoroughly washed 3 times with PBS, and stained with 5 μM H2DCF-DA for 20 min. After the incubation, cells were spin down and re-suspended in PBS, and the ROS production was quantified by flow cytometry (CyAn adp, Beckman coulter).\nas §3, with “silver and antibiotics in” for “different”, “combinations” for “combinations of ebselen and AgNO3”, “spun” for “spin”, “(CyAnadp,” for “(CyAn adp,”"}, "GSH": {"test_system": "GSH", "assay": "GSH amount in treated E. coli cell extracts, GR-coupled DTNB reduction", "type": "cell-based, Escherichia coli"}, "[7]": {"test_system": "ECL-1: Enterobacter cloacae 0431#", "procedure": "(§4) There are five most difficult-to-treat MDR Gram-negative pathogen species in the clinic, which are also typical GSH-positive bacteria: Klebsiella pneumonia, Acinetobacter baumannii, Pseudomonas aeruginosa, Enterobacter cloacae and Escherichia coli. Two strains of each species were isolated, overnight cultures were diluted 1:1000 times in LB medium, and treated with Ag^+ with a serial concentration of ebselen in combination for 16 h. […] Among these five species, A. baumannii and E. cloacae are very readily formed drug-resistant strains, which are needed to be treated by or the fourth-generation cephalosporin in the clinic, including imipenem, cefepime, and cefotaxime, etc.\n(§5) Ten clinical isolated MDR Gram-negative (GSH-positive) strains were grown until an OD600 nm of 0.4 and were diluted 1:100 into 100 μl of LB medium in 96 micro-well plates. Serial dilutions of 100 μl ebselen and AgNO3 were added to the individual wells. […] The culture treated with 0.8% (v/v) DMSO was used as a control."}, "[8]": {"test_system": "ECO-4: MG1655 (ATCC 700926)", "procedure": "as §4, §5"}, "[9]": {"test_system": "PA-1: Pseudomonas aeruginosa 1298#", "procedure": "as §4, §5"}, "AB-2: A. baumannii 0361#": {"test_system": "AB-2: A. baumannii 0361#", "procedure": "as §4, §5"}, "[10]": {"test_system": "ECO-1: Escherichia coli 1139#", "procedure": "as §4, §5"}, "[11]": {"conditions": "40 μM ebselen or 5 μM Ag^+ alone"}, "[12]": {"conditions": "5 μM Ag^+ alone or 20 μM ebselen alone, compared with control"}}, "note": "“Also recorded” adds a separate entry of the source. Read-outs that look alike come from different tables or passages of the source.", "data": [{"smiles": "O=c1c2ccccc2[se]n1-c1ccccc1", "note": "[ebselen, 2-phenyl-1,2-benzisoselenazol-3(2H)-one]", "values": [{"measurement": "MIC of silver in the presence of different antibiotics", "setting": "[1]", "value": 10, "unit": "µM"}, {"measurement": "MIC of silver in the presence of different antibiotics", "setting": "[2]", "value": 20, "unit": "µM"}, {"measurement": "MIC of silver in the presence of different antibiotics", "setting": "[3]", "value": 5, "unit": "µM"}, {"measurement": "effect on E. coli growth", "setting": "E. coli DHB4 [4]; ebselen alone (2, 4, 8 μM), 16 h", "value": "no effects on bacterial growth; also recorded: no effect on the growth of E. coli"}, {"measurement": "MIC of silver in the presence of different antibiotics", "setting": "ECL-2: E. cloacae 2301#", "value": 10, "unit": "µM"}, {"measurement": "E. coli growth (OD600 nm)", "setting": "E. coli DHB4 [5]; [11]", "value": "did not inhibit bacterial growth"}, {"measurement": "E. coli growth (OD600 nm)", "setting": "E. coli DHB4 [5]; 80 μM ebselen alone, back to normal 12 h post-treatment", "value": "could inhibit E. coli growth in first 8 h"}, {"measurement": "ROS concentrations", "setting": "E. coli DHB4 [6]", "value": "did not change ROS concentrations"}, {"measurement": "GSH levels", "setting": "GSH; [12]", "value": "neither 5 μM Ag^+ nor 20 μM ebselen modulated GSH levels"}, {"measurement": "GSH levels", "setting": "GSH; ebselen alone at 80 and 40 μM", "value": "reduced GSH levels"}]}, {"smiles": "O=[N+]([O-])[O-].[Ag+]", "note": "[silver, silver nitrate]", "values": [{"measurement": "minimal inhibition concentration (MIC) of Ag^+", "setting": "E. coli DHB4 [4]; Ag^+ alone, 16 h treatment", "value": 42, "unit": "µM"}, {"measurement": "MIC of Ag^+", "setting": "E. coli DHB4 [4]; with 2 μM ebselen, 16 h treatment", "value": 4.2, "unit": "µM"}, {"measurement": "E. coli growth (OD600 nm)", "setting": "E. coli DHB4 [5]; [11]", "value": "did not inhibit bacterial growth"}, {"measurement": "ROS concentrations", "setting": "E. coli DHB4 [6]", "value": "did not change ROS concentrations"}, {"measurement": "MIC of silver in the presence of ebselen", "setting": "[7]; Ebselen 0 μM", "value": 80, "unit": "µM"}, {"measurement": "MIC of silver in the presence of ebselen", "setting": "[7]; Ebselen 1 μM", "value": 40, "unit": "µM"}, {"measurement": "MIC of silver in the presence of ebselen", "setting": "[7]; Ebselen 2 μM", "value": 20, "unit": "µM"}, {"measurement": "MIC of silver in the presence of ebselen", "setting": "[7]; Ebselen 4 μM", "value": 20, "unit": "µM"}, {"measurement": "MIC of silver in the presence of ebselen", "setting": "[8]; Ebselen 0 μM", "value": 40, "unit": "µM"}, {"measurement": "MIC of silver in the presence of ebselen", "setting": "[8]; Ebselen 1 μM", "value": 20, "unit": "µM"}, {"measurement": "MIC of silver in the presence of ebselen", "setting": "[8]; Ebselen 2 μM", "value": 10, "unit": "µM"}, {"measurement": "MIC of silver in the presence of ebselen", "setting": "[8]; Ebselen 4 μM", "value": 5, "unit": "µM"}, {"measurement": "MIC of silver in the presence of ebselen", "setting": "[9]; Ebselen 0 μM", "value": 80, "unit": "µM"}, {"measurement": "MIC of silver in the presence of ebselen", "setting": "[9]; Ebselen 1 μM", "value": 80, "unit": "µM"}, {"measurement": "MIC of silver in the presence of ebselen", "setting": "[9]; Ebselen 2 μM", "value": 20, "unit": "µM"}, {"measurement": "MIC of silver in the presence of ebselen", "setting": "[9]; Ebselen 4 μM", "value": 20, "unit": "µM"}, {"measurement": "MIC of silver in the presence of ebselen", "setting": "AB-2: A. baumannii 0361#; Ebselen 0 μM", "value": 80, "unit": "µM"}, {"measurement": "MIC of silver in the presence of ebselen", "setting": "AB-2: A. baumannii 0361#; Ebselen 1 μM", "value": 80, "unit": "µM"}, {"measurement": "MIC of silver in the presence of ebselen", "setting": "AB-2: A. baumannii 0361#; Ebselen 2 μM", "value": 40, "unit": "µM"}, {"measurement": "MIC of silver in the presence of ebselen", "setting": "AB-2: A. baumannii 0361#; Ebselen 4 μM", "value": 20, "unit": "µM"}, {"measurement": "MIC of silver in the presence of ebselen", "setting": "[10]; Ebselen 0 μM", "value": 40, "unit": "µM"}, {"measurement": "MIC of silver in the presence of ebselen", "setting": "[10]; Ebselen 1 μM", "value": 20, "unit": "µM"}, {"measurement": "MIC of silver in the presence of ebselen", "setting": "[10]; Ebselen 2 μM", "value": 10, "unit": "µM"}, {"measurement": "MIC of silver in the presence of ebselen", "setting": "[10]; Ebselen 4 μM", "value": 5, "unit": "µM"}, {"measurement": "GSH levels", "setting": "GSH; [12]", "value": "neither 5 μM Ag^+ nor 20 μM ebselen modulated GSH levels"}]}]}
